From PubChem BioAssay (NCI)
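1) Cells in 96-well plates. 2) Compound, 48 h, 5 concentrations. 3) Linear interpolation between surrounding doses. 4) Unreached endpoint = highest concentration. TGI denotes the concentration required for complete inhibition of growth.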

Experiments:
Experiment in all cases: NCI anticancer screen, dose series, 48 h
[1] = system: HCT-15 colon
[2] = system: SK-OV-3 ovarian
[3] = system: UACC-62 melanoma
[4] = system: SW-620 colon
[5] = system: OVCAR-4 ovarian
[6] = system: IGROV1 ovarian
[7] = system: SK-MEL-2 melanoma
[8] = system: OVCAR-8 ovarian
[9] = system: HT29 colon
[10] = system: UO-31 renal
[11] = system: CAKI-1 renal
[12] = system: MDA-MB-231 breast
[13] = system: NCI/ADR-RES ovarian
[14] = system: U251 CNS
[15] = system: HOP-92 NSCLC
[16] = system: SK-MEL-5 melanoma
[17] = system: 786-0 renal
[18] = system: A549 NSCLC
[19] = system: BT-549 breast
[20] = system: HL-60(TB) leukemia
[21] = system: PC-3 prostate
[22] = system: RPMI-8226 leukemia
[23] = system: EKVX NSCLC
[24] = system: LOX IMVI melanoma
[25] = system: TK-10 renal
[26] = system: T-47D breast
[27] = system: MDA-MB-435
[28] = system: HS 578T breast
[29] = system: SF-268 CNS
[30] = system: OVCAR-3 ovarian
[31] = system: SF-295 CNS
[32] = system: SK-MEL-28 melanoma
[33] = system: SNB-75 CNS
[34] = system: MDA-N
[35] = system: DU-145 prostate
[36] = system: MOLT-4 leukemia
[37] = system: COLO 205 colon
[38] = system: ACHN renal
[39] = system: HOP-62 NSCLC
[40] = system: SF-539 CNS
[41] = system: K-562 leukemia
[42] = system: NCI-H23 lung
[43] = system: MCF7 breast
[44] = system: M14 melanoma
[45] = system: KM12 colon
[46] = system: UACC-257 melanoma
[47] = system: MALME-3M melanoma
[48] = system: OVCAR-5 ovarian
[49] = system: A498 renal
[50] = system: NCI-H522 lung
[51] = system: HCT-116 colon
[52] = system: CCRF-CEM leukemia
[53] = system: SR leukemia
[54] = system: SN12C renal
[55] = system: NCI-H226 lung
[56] = system: NCI-H460 lung
[57] = system: SNB-19 CNS
[58] = system: RXF 393 renal
[59] = system: HCC-2998 colon

For `CC(CC(=O)O)C(C(=O)O)C(=O)O` (stereo not given), the TGI [1] was > 100 µM, the TGI [2] was > 100 µM and the TGI [3] was > 100 µM. The TGI [4] was > 100 µM, the TGI [5] was > 100 µM and the TGI [6] was > 100 µM. For the same molecule, the TGI [7] was > 100 µM, the TGI [8] was > 100 µM and the TGI [9] was > 100 µM. For the same molecule, the TGI [10] was > 100 µM, the TGI [11] was > 100 µM and the TGI [12] was > 100 µM. For the same molecule, the TGI [13] was > 100 µM, the TGI [14] was > 100 µM and the TGI [15] was > 100 µM. For the same molecule, the TGI [16] was > 100 µM, the TGI [17] was > 100 µM and the TGI [18] was > 100 µM. For the same molecule, the TGI [19] was > 100 µM, the TGI [20] was > 100 µM and the TGI [21] was > 100 µM. For the same molecule, the TGI [22] was > 100 µM, the TGI [23] was > 100 µM and the TGI [24] was > 100 µM. For the same molecule, the TGI [25] was > 100 µM, the TGI [26] was > 100 µM and the TGI [27] was > 100 µM. The TGI [28] was > 100 µM, the TGI [29] was > 100 µM and the TGI [30] was > 100 µM. The TGI [31] was > 100 µM, the TGI [32] was > 100 µM and the TGI [33] was > 100 µM. The TGI [34] was > 100 µM, the TGI [35] was > 100 µM and the TGI [36] was > 100 µM. For the same molecule, the TGI [37] was > 100 µM, the TGI [38] was > 100 µM and the TGI [39] was > 100 µM. For the same molecule, the TGI [40] was > 100 µM, the TGI [41] was > 100 µM and the TGI [42] was > 100 µM. The TGI [43] was > 100 µM, the TGI [44] was > 100 µM and the TGI [45] was > 100 µM. For the same molecule, the TGI [46] was > 100 µM, the TGI [47] was > 100 µM and the TGI [48] was > 100 µM. For the same molecule, the TGI [49] was > 100 µM, the TGI [50] was > 100 µM and the TGI [51] was > 100 µM. The TGI [52] was > 100 µM, the TGI [53] was > 100 µM and the TGI [54] was > 100 µM. For the same molecule, the TGI [55] was > 100 µM, the TGI [56] was > 100 µM and the TGI [57] was > 100 µM. For the same molecule, the TGI [58] was > 100 µM.
For `CC(=O)OC1O[C@@H](C(C)(C)O)CC[C@@H]1[C@H]1CC[C@@]2(C)C3=C(CC[C@]12C)[C@@]1(C)C[C@@H](OC(=O)CC(C)(O)CC(=O)O)[C@H](OC(C)=O)C(C)(C)C1CC3` (stereo not given in full), the TGI [1] was 43.1 µM, the TGI [2] was 38.7 µM and the TGI [3] was 72.4 µM. The TGI [4] was 37.4 µM, the TGI [5] was 37.6 µM and the TGI [59] was 36.8 µM. The TGI [6] was 33.6 µM, the TGI [7] was 38.7 µM and the TGI [8] was 33.1 µM. For the same molecule, the TGI [9] was 36.4 µM, the TGI [10] was 29.4 µM and the TGI [11] was 29.4 µM. It also gave a TGI [12] of 45.5 µM, a TGI [13] of 33.7 µM and a TGI [14] of 31.4 µM. It also gave a TGI [15] of 30.8 µM, a TGI [16] of 33.3 µM and a TGI [17] of 33.9 µM. For the same molecule, the TGI [18] was 30.9 µM, the TGI [19] was 29.9 µM and the TGI [20] was 65.1 µM. It also gave a TGI [21] of 30.9 µM, a TGI [22] of 53.8 µM and a TGI [23] of 35.3 µM. It also gave a TGI [24] of 32.6 µM, a TGI [25] of 33.2 µM and a TGI [26] of 40.3 µM. For the same molecule, the TGI [27] was 31.4 µM, the TGI [28] was 42.3 µM and the TGI [30] was 32.6 µM. It also gave a TGI [31] of 32.4 µM, a TGI [32] of 30.8 µM and a TGI [34] of 34.4 µM. The TGI [35] was 33.2 µM, the TGI [36] was 43.9 µM and the TGI [38] was 32.5 µM. The TGI [39] was 35.4 µM, the TGI [41] was 89.1 µM and the TGI [42] was 36.8 µM. It also gave a TGI [43] of 32.5 µM, a TGI [44] of 34.8 µM and a TGI [45] of 44.9 µM. The TGI [46] was 31.7 µM, the TGI [47] was 34.1 µM and the TGI [48] was 32.2 µM. For the same molecule, the TGI [49] was 33.8 µM, the TGI [52] was 41.6 µM and the TGI [53] was 53.2 µM. For the same molecule, the TGI [54] was 36.2 µM, the TGI [55] was 49.6 µM and the TGI [56] was 32.7 µM. It also gave a TGI [57] of 34.6 µM.
